We go through two compounds from article PMC4319009, “Small Molecules Dorsomorphin and LDN-193189 Inhibit Myostatin/GDF8 Signaling and Promote Functional Myoblast Differentiation” (The Journal of Biological Chemistry, 2014).

The Kd is the free concentration of one partner at which half of the binding sites on the other are occupied at equilibrium, for simple one-to-one binding. Low readings indicate tighter binding, high ones weaker binding.

The structures appear in SMILES notation.

One assay deals with T1, ActRIIA (Homo sapiens, UniProt P27037).
T1 construct: gene ACVR2A; kinase domain residues 191-488, N-terminal His6 removed by TEV protease, vector pFB-LIC-Bse, baculovirus Sf9; two molecules per asymmetric unit
In words: isothermal titration calorimetry. Format: binding. The text has this:
isothermal titration calorimetry on ActRIIA
(Isothermal titration calorimetry measures the heat released or taken up as one component is titrated into another.)

A further assay addresses T2, ActRIIB (Homo sapiens, UniProt Q13705).
T2 construct: gene ACVR2B; kinase domain residues 190-487, N-terminal His6 removed by TEV protease, vector pFB-LIC-Bse, baculovirus Sf9
In words: isothermal titration calorimetry. Format: binding. The text has this:
isothermal titration calorimetry on ActRIIB

T1 sequence (P27037 191-488): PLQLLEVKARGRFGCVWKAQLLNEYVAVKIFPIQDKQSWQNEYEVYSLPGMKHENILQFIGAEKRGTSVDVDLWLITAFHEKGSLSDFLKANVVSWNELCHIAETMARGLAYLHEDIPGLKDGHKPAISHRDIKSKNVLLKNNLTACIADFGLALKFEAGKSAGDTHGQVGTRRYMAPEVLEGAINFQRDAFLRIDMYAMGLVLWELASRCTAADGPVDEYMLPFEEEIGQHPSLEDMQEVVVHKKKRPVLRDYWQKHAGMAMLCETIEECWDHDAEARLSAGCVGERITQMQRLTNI
T2 sequence (Q13705 190-487): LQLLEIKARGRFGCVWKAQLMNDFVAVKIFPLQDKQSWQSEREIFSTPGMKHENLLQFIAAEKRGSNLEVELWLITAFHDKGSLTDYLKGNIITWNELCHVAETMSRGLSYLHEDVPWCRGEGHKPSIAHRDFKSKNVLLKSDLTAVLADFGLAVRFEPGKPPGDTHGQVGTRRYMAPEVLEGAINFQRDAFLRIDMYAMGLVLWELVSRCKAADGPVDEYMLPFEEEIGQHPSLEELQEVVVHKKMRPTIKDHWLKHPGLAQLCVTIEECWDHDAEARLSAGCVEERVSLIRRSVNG

For `c1ccc2c(-c3cnn4cc(-c5ccc(N6CCNCC6)cc5)cnc34)ccnc2c1` [LDN-193189], the dissociation constant (Kd) at ActRIIA was 14 nM. This lies in the double-digit nanomolar range.
Consider `c1cc(-c2cnn3cc(-c4ccc(OCCN5CCCCC5)cc4)cnc23)ccn1` [Dorsomorphin], for which the Kd at ActRIIB came to 30 nM; on ActRIIA it was 58 nM.
